Experimental data from US20090203716A1, “Pyrimidine low molecular weight ligands for modulating hormone receptors” (The Government of the United States of America as …, priority 2006, published 2009).

What was measured:
Format in all cases: cell-based
human LHCG receptor = molecular target: T1, human LHCG receptor (Homo sapiens, UniProt P22888); experiment: intracellular cAMP accumulation, agonism at LHCGR stably expressed in HEK EM 293 cells; details: full activation of LHCGR by LH set at 100%
T1 construct: expressed in transfected cells
T1 sequence (P22888 27-699): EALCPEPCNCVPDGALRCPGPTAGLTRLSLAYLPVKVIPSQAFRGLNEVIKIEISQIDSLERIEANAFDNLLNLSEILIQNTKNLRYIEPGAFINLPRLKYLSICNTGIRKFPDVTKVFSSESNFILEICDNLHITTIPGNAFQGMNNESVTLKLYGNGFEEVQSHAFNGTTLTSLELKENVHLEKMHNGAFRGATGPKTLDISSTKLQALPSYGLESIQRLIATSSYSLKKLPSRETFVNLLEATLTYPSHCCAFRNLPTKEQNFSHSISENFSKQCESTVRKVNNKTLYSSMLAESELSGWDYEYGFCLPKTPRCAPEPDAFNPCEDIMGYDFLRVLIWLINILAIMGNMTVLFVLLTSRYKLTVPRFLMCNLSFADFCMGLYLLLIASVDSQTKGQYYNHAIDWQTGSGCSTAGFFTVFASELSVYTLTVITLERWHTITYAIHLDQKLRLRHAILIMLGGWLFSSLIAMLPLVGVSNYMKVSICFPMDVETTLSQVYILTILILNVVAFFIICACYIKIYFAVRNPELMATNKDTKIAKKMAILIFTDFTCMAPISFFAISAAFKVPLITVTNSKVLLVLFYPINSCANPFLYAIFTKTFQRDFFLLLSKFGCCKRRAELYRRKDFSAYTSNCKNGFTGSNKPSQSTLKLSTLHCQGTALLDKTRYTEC
Experimental: With reference to Table 1, exemplary disclosed compounds were evaluated against human TSH receptor and human LHCG receptor that were stably expressed in HEK 293 EM cells as previously described by Libert et al. (Biochem. Biophys. Res. Commun. 1989, 165, 1250-1255); and by Schulz et al. (Mol. Endocrinol. 1999, 13, 181-190). Cell surface expression of TSH receptor and LHCG receptor were determined via FACS analysis (Kleinau, G.; Jäschke, H.; Neumann, S.; Lättig, S.; Paschke, R.; Krause, G. J. Biol. Chem. 2004, 279, 51590-51600).
Following aspiration of the medium after incubation with compounds, cells were lysed using lysis buffer 1 of the cAMP Biotrak Enzymeimmunoassay (EIA) System (Amersham Biosciences). The cAMP content of the cell lysate was determined using the manufacturer's protocol. […] The potency (EC50) was obtained from dose response curves (0-100 μM compound) by data analysis with GraphPad Prism 4 for Windows. […] The data are presented as mean±SEM of two independent experiments, each performed in duplicate.
(§1) Transiently transfected cells were cultured for 48 hours before the cAMP assay. HEK-EM 293 cells stably expressing TSHR, LHCGR or FSHR were seeded into 24-well plates with a density of 2.2×10^5 cells/well 24 hours before the cAMP assay. After removal of growth medium, cells were incubated for 1 hour in HBSS (Cellgro) with 10 mM HEPES (Cellgro) containing 1 mM 3-isobutyl-1-methylxanthine (IBMX) (Sigma) and the ligand of interest in a humidified 5% CO2 incubator at 37° C. The intracellular cAMP content was determined with the cAMP Biotrak Enzymeimmunoassay (EIA) System (GE Healthcare). Data were analyzed using GraphPad Prism 4 for Windows. Receptor expression was measured as described in Jaschke et al., J Biol Chem 281:9841-9844.

FSHR = molecular target: T2, FSHR (Homo sapiens, UniProt P23945); experiment: intracellular cAMP accumulation in HEK-EM 293 cells stably expressing FSHR
T2 sequence (P23945 18-695): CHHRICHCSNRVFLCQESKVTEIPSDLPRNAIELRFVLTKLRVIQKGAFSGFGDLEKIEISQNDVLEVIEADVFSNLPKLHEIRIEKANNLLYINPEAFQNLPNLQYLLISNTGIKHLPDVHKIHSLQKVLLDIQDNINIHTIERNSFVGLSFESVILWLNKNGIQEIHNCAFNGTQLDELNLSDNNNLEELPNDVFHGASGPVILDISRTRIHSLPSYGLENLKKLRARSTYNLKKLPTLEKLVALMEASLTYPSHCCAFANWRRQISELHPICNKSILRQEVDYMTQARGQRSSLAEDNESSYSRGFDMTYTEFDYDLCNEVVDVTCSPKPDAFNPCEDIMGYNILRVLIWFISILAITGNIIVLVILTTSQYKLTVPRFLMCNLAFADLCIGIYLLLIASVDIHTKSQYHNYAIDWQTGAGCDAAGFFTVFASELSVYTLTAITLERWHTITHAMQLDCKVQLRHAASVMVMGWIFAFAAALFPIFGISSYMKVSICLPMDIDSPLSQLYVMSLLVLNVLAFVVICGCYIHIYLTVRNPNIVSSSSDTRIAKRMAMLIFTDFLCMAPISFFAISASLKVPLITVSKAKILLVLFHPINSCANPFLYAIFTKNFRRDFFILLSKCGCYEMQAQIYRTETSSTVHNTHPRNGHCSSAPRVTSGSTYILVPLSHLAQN
Experimental: The expression vectors for human TSHR and LHR are described in Jaschke et al., J Biol Chem 281:9841-9844. The FSHR cDNA in pcDNA3.1 was obtained from the Missouri S&T cDNA Resource Center (www.cDNA.org) and was subcloned into the pcDNA3.1(−)/hygromycin vector. HEK-EM 293 cells were transfected with the cDNA of TSHR, LHCGR or FSHR using FuGENE 6 Transfection reagent (Roche Diagnostics). Hygromycin (250 μg/ml) was used as selection marker.
as §1

[1] = test system: thyroperoxidase (TPO) mRNA expression in human thyrocytes; experiment: TPO mRNA expression in primary cultures of human thyrocytes; set-up: inhibition of TSH-stimulated increase of TPO mRNA expression: dose or concentration left out as unconfirmed
Experimental: Thyroid tissue samples were obtained through the NIH Clinical Center during surgery for unrelated reasons. Patients provided informed consent on an IRB approved protocol and materials were received anonymously via approval of research activity through the Office of Human Subjects Research. The specimens were maintained in HBSS on ice and isolation of cells was initiated within 4 hours after surgery. All preparations were performed under sterile conditions. Tissue samples were minced into small pieces by fine surgical forceps and scissors in a 10 cm dish with a small volume of HBSS. Tissue pieces were transferred to a 15 ml tube (Falcon) and washed at least 3 times with HBSS. Afterward, tissue pieces were incubated with HBSS containing 3 mg/ml Collagenase Type IV (Gibco). Enzymatic digestion proceeded for 30 minutes or longer with constant shaking in a water bath at 37° C. until a suspension of isolated cells was obtained. After centrifugation for 5 minutes at 1000 rpm, the supernatant was removed and cells were resuspended in 10 ml DMEM with 10% FBS. Cells were plated in 10 cm tissue culture dishes and incubated at 37° C. in a humidified 5% CO2 incubator. After 24 hours, the supernatant containing non-adherent cells was removed. The primary cultures of thyroid cells formed a confluent monolayer within 5-7 days. […]

activity at LHCGR compared to full activation by LH (human LHCG receptor): 17.25±2.25%
activity at FSHR (FSHR): no activity
inhibition of TSH-stimulated increase of TPO mRNA expression ([1]; 1 hour pretreatment, 24 hours with TSH, thyrocytes from two donors): inhibited
inhibition of TsAb-stimulated TPO mRNA expression ([1]; Graves' disease sera 1:50, 10 μM compound, 24 hours): inhibited
SMILES: COC/C=C/c1ccc(-c2nc(SC)nc3sc(C(=O)NC(C)(C)C)c(N)c23)cc1 [Compound 52]
